{"source": "paper PMC10177727", "about": "(Clinical Drug Investigation, 2023)", "key": {"[1]": {"test": "Safety and tolerability: treatment-emergent adverse events", "type": "in vivo, healthy Japanese adult participants"}, "[2]": {"settings": "ensitrelvir; cited from earlier work"}, "CYP3A": {"biological_target": "CYP3A (Homo sapiens, UniProt P08684)", "sequence (P08684 2-503)": "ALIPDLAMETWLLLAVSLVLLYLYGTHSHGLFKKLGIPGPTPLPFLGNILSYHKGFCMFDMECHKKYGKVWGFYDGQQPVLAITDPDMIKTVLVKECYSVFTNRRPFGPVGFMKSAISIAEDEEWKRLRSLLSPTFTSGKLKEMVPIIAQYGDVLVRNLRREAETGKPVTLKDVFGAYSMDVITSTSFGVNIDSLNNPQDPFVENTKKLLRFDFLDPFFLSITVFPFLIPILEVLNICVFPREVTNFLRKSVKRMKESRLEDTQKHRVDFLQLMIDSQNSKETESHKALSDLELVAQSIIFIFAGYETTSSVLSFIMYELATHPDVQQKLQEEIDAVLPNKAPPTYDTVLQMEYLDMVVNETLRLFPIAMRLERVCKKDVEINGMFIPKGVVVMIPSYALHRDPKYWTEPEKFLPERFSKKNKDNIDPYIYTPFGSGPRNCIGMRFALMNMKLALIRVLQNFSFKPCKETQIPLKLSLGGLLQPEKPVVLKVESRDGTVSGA", "settings": "pre-clinical in vitro findings"}, "[3]": {"settings": "Ensitrelvir 375/125 mg + midazolam, N = 14"}, "[4]": {"settings": "Ensitrelvir 375/125 mg + midazolam, N = 14, listed as ensitrelvir"}, "[5]": {"settings": "Ensitrelvir 750/250 mg + dexamethasone, N = 14"}, "[6]": {"settings": "Ensitrelvir 750/250 mg + dexamethasone, N = 14, listed as ensitrelvir"}, "[7]": {"settings": "Ensitrelvir 750/250 mg + prednisolone, N = 14"}}}
{"smiles": "Cn1cnc(Cn2c(=O)[nH]/c(=N\\c3cc4cn(C)nc4cc3Cl)n(Cc3cc(F)c(F)cc3F)c2=O)n1", "note": "[Ensitrelvir, Ensitrelvir fumaric acid]", "values": [{"measurement": "Arthropod sting, Events", "setting": "[1]; [3]", "value": 1}, {"measurement": "Arthropod sting, N (%)", "setting": "[1]; [3]", "value": "1 (7.1)"}, {"measurement": "Blood triglycerides increased, Events", "setting": "[1]; [3]", "value": 1}, {"measurement": "Blood triglycerides increased, N (%)", "setting": "[1]; [3]", "value": "1 (7.1)"}, {"measurement": "Blood triglycerides increased, events Related to ensitrelvir", "setting": "[1]; [3]", "value": 1}, {"measurement": "Diarrhea, Events", "setting": "[1]; [3]", "value": 1}, {"measurement": "Diarrhea, N (%)", "setting": "[1]; [3]", "value": "1 (7.1)"}, {"measurement": "Gastrointestinal disorders, Events", "setting": "[1]; [3]", "value": 1}, {"measurement": "Gastrointestinal disorders, N (%)", "setting": "[1]; [3]", "value": "1 (7.1)"}, {"measurement": "High-density lipoprotein decreased, Events", "setting": "[1]; [3]", "value": 8}, {"measurement": "High-density lipoprotein decreased, N (%)", "setting": "[1]; [3]", "value": "8 (57.1)"}, {"measurement": "High-density lipoprotein decreased, events Related to ensitrelvir", "setting": "[1]; [3]", "value": 8}, {"measurement": "Injury, poisoning and procedural complications, Events", "setting": "[1]; [3]", "value": 1}, {"measurement": "Injury, poisoning and procedural complications, N (%)", "setting": "[1]; [3]", "value": "1 (7.1)"}, {"measurement": "Investigations, Events", "setting": "[1]; [3]", "value": 9}, {"measurement": "Investigations, N (%)", "setting": "[1]; [3]", "value": "8 (57.1)"}, {"measurement": "Investigations, events Related to ensitrelvir", "setting": "[1]; [3]", "value": 9}, {"measurement": "Nervous system disorders, Events", "setting": "[1]; [3]", "value": 10}, {"measurement": "Nervous system disorders, N (%)", "setting": "[1]; [3]", "value": "9 (64.3)"}, {"measurement": "Nervous system disorders, events Related to ensitrelvir", "setting": "[1]; [3]", "value": 2}, {"measurement": "Participants with any TEAE, Events", "setting": "[1]; [3]", "value": 21}, {"measurement": "Participants with any TEAE, N (%)", "setting": "[1]; [3]", "value": "11 (78.6)"}, {"measurement": "Participants with any TEAE, events Related to ensitrelvir", "setting": "[1]; [3]", "value": 11}, {"measurement": "Somnolence, Events", "setting": "[1]; [3]", "value": 10}, {"measurement": "Somnolence, N (%)", "setting": "[1]; [3]", "value": "9 (64.3)"}, {"measurement": "Somnolence, events Related to ensitrelvir", "setting": "[1]; [3]", "value": 2}, {"measurement": "Arthropod sting, N (%)", "setting": "[1]; [4]", "value": 1}, {"measurement": "Blood triglycerides increased, N (%)", "setting": "[1]; [4]", "value": 1}, {"measurement": "Diarrhea, N (%)", "setting": "[1]; [4]", "value": 1}, {"measurement": "High-density lipoprotein decreased, N (%)", "setting": "[1]; [4]", "value": 8}, {"measurement": "Participants with any TEAE, N (%)", "setting": "[1]; [4]", "value": 11}, {"measurement": "Somnolence, N (%)", "setting": "[1]; [4]", "value": 9}, {"measurement": "Atrioventricular block, Events", "setting": "[1]; [5]", "value": 1}, {"measurement": "Atrioventricular block, N (%)", "setting": "[1]; [5]", "value": "1 (7.1)"}, {"measurement": "Blood triglycerides increased, Events", "setting": "[1]; [5]", "value": 4}, {"measurement": "Blood triglycerides increased, N (%)", "setting": "[1]; [5]", "value": "4 (28.6)"}, {"measurement": "Blood triglycerides increased, events Related to ensitrelvir", "setting": "[1]; [5]", "value": 3}, {"measurement": "Cardiac disorders, Events", "setting": "[1]; [5]", "value": 1}, {"measurement": "Cardiac disorders, N (%)", "setting": "[1]; [5]", "value": "1 (7.1)"}, {"measurement": "Dizziness, Events", "setting": "[1]; [5]", "value": 1}, {"measurement": "Dizziness, N (%)", "setting": "[1]; [5]", "value": "1 (7.1)"}, {"measurement": "Dizziness, events Related to ensitrelvir", "setting": "[1]; [5]", "value": 1}, {"measurement": "Headache, Events", "setting": "[1]; [5]", "value": 1}, {"measurement": "Headache, N (%)", "setting": "[1]; [5]", "value": "1 (7.1)"}, {"measurement": "Headache, events Related to ensitrelvir", "setting": "[1]; [5]", "value": 1}, {"measurement": "High-density lipoprotein decreased, Events", "setting": "[1]; [5]", "value": 5}, {"measurement": "High-density lipoprotein decreased, N (%)", "setting": "[1]; [5]", "value": "5 (35.7)"}, {"measurement": "High-density lipoprotein decreased, events Related to ensitrelvir", "setting": "[1]; [5]", "value": 5}, {"measurement": "Investigations, Events", "setting": "[1]; [5]", "value": 9}, {"measurement": "Investigations, N (%)", "setting": "[1]; [5]", "value": "7 (50.0)"}, {"measurement": "Investigations, events Related to ensitrelvir", "setting": "[1]; [5]", "value": 8}, {"measurement": "Nervous system disorders, Events", "setting": "[1]; [5]", "value": 2}, {"measurement": "Nervous system disorders, N (%)", "setting": "[1]; [5]", "value": "1 (7.1)"}, {"measurement": "Nervous system disorders, events Related to ensitrelvir", "setting": "[1]; [5]", "value": 2}, {"measurement": "Papule, Events", "setting": "[1]; [5]", "value": 1}, {"measurement": "Papule, N (%)", "setting": "[1]; [5]", "value": "1 (7.1)"}, {"measurement": "Papule, events Related to ensitrelvir", "setting": "[1]; [5]", "value": 1}, {"measurement": "Participants with any TEAE, Events", "setting": "[1]; [5]", "value": 13}, {"measurement": "Participants with any TEAE, N (%)", "setting": "[1]; [5]", "value": "9 (64.3)"}, {"measurement": "Participants with any TEAE, events Related to ensitrelvir", "setting": "[1]; [5]", "value": 11}, {"measurement": "Skin and subcutaneous tissue disorders, Events", "setting": "[1]; [5]", "value": 1}, {"measurement": "Skin and subcutaneous tissue disorders, N (%)", "setting": "[1]; [5]", "value": "1 (7.1)"}, {"measurement": "Skin and subcutaneous tissue disorders, events Related to ensitrelvir", "setting": "[1]; [5]", "value": 1}, {"measurement": "Atrioventricular block, N (%)", "setting": "[1]; [6]", "value": 1}, {"measurement": "Blood triglycerides increased, N (%)", "setting": "[1]; [6]", "value": 4}, {"measurement": "Dizziness, N (%)", "setting": "[1]; [6]", "value": 1}, {"measurement": "Headache, N (%)", "setting": "[1]; [6]", "value": 1}, {"measurement": "Papule, N (%)", "setting": "[1]; [6]", "value": 1}, {"measurement": "Participants with any TEAE, N (%)", "setting": "[1]; [6]", "value": 9}, {"measurement": "Atrioventricular block, Events", "setting": "[1]; [7]", "value": 0}, {"measurement": "Atrioventricular block, N (%)", "setting": "[1]; [7]", "value": 0}, {"measurement": "Atrioventricular block, events Related to ensitrelvir", "setting": "[1]; [7]", "value": 0}, {"measurement": "Blood triglycerides increased, Events", "setting": "[1]; [7]", "value": 0}, {"measurement": "Blood triglycerides increased, N (%)", "setting": "[1]; [7]", "value": 0}, {"measurement": "Blood triglycerides increased, events Related to ensitrelvir", "setting": "[1]; [7]", "value": 0}, {"measurement": "Cardiac disorders, Events", "setting": "[1]; [7]", "value": 0}, {"measurement": "Cardiac disorders, N (%)", "setting": "[1]; [7]", "value": 0}, {"measurement": "Cardiac disorders, events Related to ensitrelvir", "setting": "[1]; [7]", "value": 0}, {"measurement": "Dizziness, Events", "setting": "[1]; [7]", "value": 0}, {"measurement": "Dizziness, N (%)", "setting": "[1]; [7]", "value": 0}, {"measurement": "Dizziness, events Related to ensitrelvir", "setting": "[1]; [7]", "value": 0}, {"measurement": "Headache, Events", "setting": "[1]; [7]", "value": 0}, {"measurement": "Headache, N (%)", "setting": "[1]; [7]", "value": 0}, {"measurement": "Headache, events Related to ensitrelvir", "setting": "[1]; [7]", "value": 0}, {"measurement": "High-density lipoprotein decreased, Events", "setting": "[1]; [7]", "value": 14}, {"measurement": "High-density lipoprotein decreased, N (%)", "setting": "[1]; [7]", "value": "14 (100.0)"}, {"measurement": "High-density lipoprotein decreased, events Related to ensitrelvir", "setting": "[1]; [7]", "value": 14}, {"measurement": "Investigations, Events", "setting": "[1]; [7]", "value": 14}, {"measurement": "Investigations, N (%)", "setting": "[1]; [7]", "value": "14 (100.0)"}, {"measurement": "Investigations, events Related to ensitrelvir", "setting": "[1]; [7]", "value": 14}, {"measurement": "Nervous system disorders, Events", "setting": "[1]; [7]", "value": 0}, {"measurement": "Nervous system disorders, N (%)", "setting": "[1]; [7]", "value": 0}, {"measurement": "Nervous system disorders, events Related to ensitrelvir", "setting": "[1]; [7]", "value": 0}, {"measurement": "Papule, Events", "setting": "[1]; [7]", "value": 0}, {"measurement": "Papule, N (%)", "setting": "[1]; [7]", "value": 0}, {"measurement": "Papule, events Related to ensitrelvir", "setting": "[1]; [7]", "value": 0}, {"measurement": "Participants with any TEAE, Events", "setting": "[1]; [7]", "value": 14}, {"measurement": "Participants with any TEAE, N (%)", "setting": "[1]; [7]", "value": "14 (100.0)"}, {"measurement": "Participants with any TEAE, events Related to ensitrelvir", "setting": "[1]; [7]", "value": 14}, {"measurement": "Skin and subcutaneous tissue disorders, Events", "setting": "[1]; [7]", "value": 0}, {"measurement": "Skin and subcutaneous tissue disorders, N (%)", "setting": "[1]; [7]", "value": 0}, {"measurement": "Skin and subcutaneous tissue disorders, events Related to ensitrelvir", "setting": "[1]; [7]", "value": 0}, {"measurement": "Participants with any TEAE, N (%)", "setting": "[1]; Ensitrelvir 750/250 mg + prednisolone, N = 14, listed as ensitrelvir", "value": 14}, {"measurement": "serious TEAEs", "setting": "[1]; all cohorts", "value": "no serious TEAEs"}, {"measurement": "tolerability", "setting": "[1]; multiple-dose ensitrelvir with CYP3A substrates", "value": "well tolerated"}, {"measurement": "t1/2,z", "setting": "[2]", "value": "42.2 to 48.1", "unit": "h"}, {"measurement": "reversible inhibitory effect on CYP3A4", "setting": "CYP3A", "value": "no reversible inhibitory effect"}, {"measurement": "time-dependent inhibition of CYP3A", "setting": "CYP3A", "value": "time-dependent NADPH-mediated inhibition"}]}
